According to patent US9695155B2, “Herbicidal substituted pyrimidinyloxy benzene compounds” (E. I. DU PONT DE NEMOURS AND COMPANY, priority 2013, dated 2017):

Experiments:
field poppy = assay: Test D preemergence; format: in vivo, Papaver rhoeas; details: Papaver rhoeas, pre-emergence
Procedure, shortened: (§1)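 Greenhouse herbicide screen. Sowing into silt loam for preemergence application; foliar application to 2–18 cm seedlings in potting mix for postemergence. 0–100 visual control rating after 7–21 d.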

deadnettle = assay: Test D preemergence; format: in vivo, Lamium amplexicaule; details: Lamium amplexicaule, pre-emergence
Procedure, shortened: as §1

Italian ryegrass = assay: Test D preemergence; format: in vivo, Lolium multiflorum; details: Lolium multiflorum, pre-emergence
Procedure, shortened: as §1

speedwell [1] = assay: Test D preemergence; format: in vivo, Veronica persica; details: Veronica persica, pre-emergence
Procedure, shortened: as §1

windgrass = assay: Test D preemergence; format: in vivo, Apera spica-venti; details: Apera spica-venti, pre-emergence
Procedure, shortened: as §1

pigweed = assay: Test D postemergence; format: in vivo, Amaranthus retroflexus; details: Amaranthus retroflexus, post-emergence
Procedure, shortened: as §1

speedwell [2] = assay: Test D postemergence; format: in vivo, Veronica persica; details: Veronica persica, post-emergence
Procedure, shortened: as §1

spring barley = assay: Test D postemergence; format: in vivo, Hordeum vulgare; details: Hordeum vulgare, post-emergence, Postemergence, scale 0 to 100 (0 no effect, 100 complete control), read-out: Plant response rating, Barley, Spring
Procedure, shortened: as §1

winter barley = assay: Test D postemergence; format: in vivo, Hordeum vulgare; details: Hordeum vulgare, post-emergence, Postemergence, scale 0 to 100 (0 no effect, 100 complete control), read-out: Plant response rating, Barley, Winter
Procedure, shortened: as §1

surinam grass = assay: Test F preemergence; format: in vivo, Brachiaria decumbens; details: 21 days, scale 0 to 100
Procedure, shortened: (§2)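 Loam/sand mix; preemergence spray, non-phytotoxic solvent + surfactant; greenhouse 21 d; visual injury vs untreated, 0 (none)–100 (complete control).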

[3] = tested on: morningglory (pitted morningglory); assay: Test F preemergence; format: in vivo, Ipomoea lacunosa; details: 21 days, scale 0 to 100
Procedure, shortened: as §2

dallisgrass = assay: Test F preemergence; format: in vivo, Paspalum dilatatum; details: 21 days, scale 0 to 100
Excerpt: Seeds of plant species selected from bermudagrass (Cynodon dactylon), surinam grass (Brachiaria decumbens), large (Lg) crabgrass (Digitaria sanguinalis), crabgrass, naked (naked crabgrass, Digitaria nuda), foxtail, green (green foxtail, Setaria viridis), johnsongrass (Sorghum halepense), kochia (Kochia scoparia), morningglory (pitted morningglory, Ipomoea lacunosa), nutsedge, purple (purple nutsedge, Cyperus rotundus), ragweed (common ragweed, Ambrosia elatior), mustard, black (black mustard, Brassica nigra), guineagrass (Panicum maximum), dallisgrass (Paspalum dilatatum), barnyardgrass (Echinochloa crus-galli), sandbur (southern sandbur, Cenchrus echinatus), sowthistle (common sowthistle, Sonchus oleraceous), Italian ryegrass (Lolium multiflorum), signalgrass (broadleaf signalgrass, Brachiaria platyphylla), dayflower (Virginia (VA) dayflower, Commelina virginica), bluegrass (annual bluegrass, Poa annua), quackgrass (Elytrigia repens), mallow (common mallow, Malva sylvestris), buckwheat, wild (wild buckwheat, Polygonum convolvulus), leafy spurge (Euphorbia esula), chickweed (common chickweed, Stellaria media), wild poinsettia (Euphorbia heterophylla), and pigweed (Amaranthus retroflexus) were planted into a blend of loam soil and sand and treated preemergence with test chemicals formulated in a non-phytotoxic solvent mixture which included a surfactant.
Treated plants and controls were maintained in a greenhouse for 21 days, after which time all species were compared to controls and visually evaluated. Plant response ratings, summarized in Table F, are based on a scale of 0 to 100 where 0 is no effect and 100 is complete control. A dash (-) response means no test result.

barnyardgrass = assay: Test F preemergence; format: in vivo, Echinochloa crus-galli; details: 21 days, scale 0 to 100
Procedure, shortened: as §2

bluegrass = assay: Test F preemergence; format: in vivo, Poa annua; details: 21 days, scale 0 to 100
Procedure, shortened: as §2

buckwheat, wild = assay: Test F preemergence; format: in vivo, Polygonum convolvulus; details: 21 days, scale 0 to 100
Procedure, shortened: as §2

N#Cc1cccc(Oc2ncc(Cl)cn2)c1-n1cc(OCC(F)(F)F)cn1 [Compound 274, 3-[(5-chloro-2-pyrimidinyl)oxy]-2-[4-(2,2,2-trifluoroethoxy)-1H-pyrazol-1-yl]benzonitrile]
pest or weed control at 16 g/ha (field poppy; 16 g ai/ha, scale 0 (no effect) to 100 (complete control), read-out: Plant response rating, Field Poppy): 75% | pest or weed control at 31 g/ha (field poppy; 31 g ai/ha, scale 0-100, read-out: Plant response rating, Field Poppy): 100% | pest or weed control at 62 g/ha (field poppy; 62 g ai/ha, scale 0-100, read-out: Plant response rating, Field Poppy): 100% | pest or weed control at 125 g/ha (field poppy; 125 g ai/ha, scale 0-100, read-out: Plant response rating, Field Poppy): 100% | pest or weed control at 16 g/ha (deadnettle; 16 g ai/ha, scale 0 (no effect) to 100 (complete control), read-out: Plant response rating, Deadnettle): 55% | pest or weed control at 31 g/ha (deadnettle; 31 g ai/ha, scale 0-100, read-out: Plant response rating, Deadnettle): 100% | pest or weed control at 62 g/ha (deadnettle; 62 g ai/ha, scale 0-100, read-out: Plant response rating, Deadnettle): 100% | pest or weed control at 125 g/ha (deadnettle; 125 g ai/ha, scale 0-100, read-out: Plant response rating, Deadnettle): 100% | pest or weed control at 16 g/ha (Italian ryegrass; 16 g ai/ha, scale 0 (no effect) to 100 (complete control), read-out: Plant response rating, Ryegrass, Italian): 0% | pest or weed control at 31 g/ha (Italian ryegrass; 31 g ai/ha, scale 0 (no effect) to 100 (complete control), read-out: Plant response rating, Ryegrass, Italian): 0% | pest or weed control at 125 g/ha (Italian ryegrass; 125 g ai/ha, scale 0-100, read-out: Plant response rating, Ryegrass, Italian): 70% | pest or weed control at 16 g/ha (speedwell [1]; 16 g ai/ha, scale 0 (no effect) to 100 (complete control), read-out: Plant response rating, Speedwell): 100% | pest or weed control at 31 g/ha (speedwell [1]; 31 g ai/ha, scale 0 (no effect) to 100 (complete control), read-out: Plant response rating, Speedwell): 100% | pest or weed control at 125 g/ha (speedwell [1]; 125 g ai/ha, scale 0-100, read-out: Plant response rating, Speedwell): 100% | pest or weed control at 16 g/ha (windgrass; 16 g ai/ha, scale 0 (no effect) to 100 (complete control), read-out: Plant response rating, Windgrass): 20% | pest or weed control at 31 g/ha (windgrass; 31 g ai/ha, scale 0 (no effect) to 100 (complete control), read-out: Plant response rating, Windgrass): 90% | pest or weed control at 125 g/ha (windgrass; 125 g ai/ha, scale 0-100, read-out: Plant response rating, Windgrass): 100% | pest or weed control at 16 g/ha (pigweed; 16 g ai/ha, scale 0-100, read-out: Plant response rating, Pigweed): 75% | pest or weed control at 31 g/ha (pigweed; 31 g ai/ha, scale 0 to 100 (0 no effect, 100 complete control), read-out: Plant response rating, Pigweed): 95% | pest or weed control at 62 g/ha (pigweed; 62 g ai/ha, scale 0 to 100 (0 no effect, 100 complete control), read-out: Plant response rating, Pigweed): 95% | pest or weed control at 125 g/ha (pigweed; 125 g ai/ha, scale 0 to 100 (0 no effect, 100 complete control), read-out: Plant response rating, Pigweed): 95% | pest or weed control at 16 g/ha (speedwell [2]; 16 g ai/ha, scale 0-100, read-out: Plant response rating, Speedwell): 75% | pest or weed control at 31 g/ha (speedwell [2]; 31 g ai/ha, scale 0 to 100 (0 no effect, 100 complete control), read-out: Plant response rating, Speedwell): 100% | pest or weed control at 62 g/ha (speedwell [2]; 62 g ai/ha, scale 0 to 100 (0 no effect, 100 complete control), read-out: Plant response rating, Speedwell): 85% | pest or weed control at 125 g/ha (speedwell [2]; 125 g ai/ha, scale 0 to 100 (0 no effect, 100 complete control), read-out: Plant response rating, Speedwell): 100% | plant injury at 16 g/ha (spring barley; 16 g ai/ha): 20% | plant injury at 31 g/ha (spring barley; 31 g ai/ha): 25% | plant injury at 62 g/ha (spring barley; 62 g ai/ha): 30% | plant injury at 125 g/ha (spring barley; 125 g ai/ha): 35% | plant injury at 16 g/ha (winter barley; 16 g ai/ha): 10% | plant injury at 31 g/ha (winter barley; 31 g ai/ha): 20% | plant injury at 62 g/ha (winter barley; 62 g ai/ha): 25% | plant injury at 125 g/ha (winter barley; 125 g ai/ha): 30% | Plant response rating, Surinam Grass (surinam grass; 16 g ai/ha): 10 | Plant response rating, Surinam Grass (surinam grass; 31 g ai/ha): 35 | Plant response rating, Surinam Grass (surinam grass; 62 g ai/ha): 70 | Plant response rating, Surinam Grass (surinam grass; 125 g ai/ha): 100 | Plant response rating, Surinam Grass (surinam grass; 250 g ai/ha): 100 | Plant response rating, Morningglory ([3]; 16 g ai/ha): 35 | Plant response rating, Morningglory ([3]; 31 g ai/ha): 50 | Plant response rating, Morningglory ([3]; 62 g ai/ha): 65 | Plant response rating, Morningglory ([3]; 125 g ai/ha): 98 | Plant response rating, Morningglory ([3]; 250 g ai/ha): 100 | Plant response rating, Dallisgrass (dallisgrass; 16 g ai/ha): 95 | Plant response rating, Dallisgrass (dallisgrass; 31 g ai/ha): 100 | Plant response rating, Dallisgrass (dallisgrass; 62 g ai/ha): 100 | Plant response rating, Dallisgrass (dallisgrass; 125 g ai/ha): 100 | Plant response rating, Dallisgrass (dallisgrass; 250 g ai/ha): 100 | Plant response rating, Barnyardgrass (barnyardgrass; 16 g ai/ha): 75 | Plant response rating, Barnyardgrass (barnyardgrass; 31 g ai/ha): 100 | Plant response rating, Barnyardgrass (barnyardgrass; 62 g ai/ha): 100 | Plant response rating, Barnyardgrass (barnyardgrass; 125 g ai/ha): 100 | Plant response rating, Barnyardgrass (barnyardgrass; 250 g ai/ha): 100 | Plant response rating, Bluegrass (bluegrass; 16 g ai/ha): 0 | Plant response rating, Bluegrass (bluegrass; 31 g ai/ha): 20 | Plant response rating, Bluegrass (bluegrass; 62 g ai/ha): 50 | Plant response rating, Bluegrass (bluegrass; 125 g ai/ha): 85 | Plant response rating, Bluegrass (bluegrass; 250 g ai/ha): 100 | Plant response rating, Buckwheat, Wild (buckwheat, wild; 16 g ai/ha): 100 | Plant response rating, Buckwheat, Wild (buckwheat, wild; 31 g ai/ha): 100 | Plant response rating, Buckwheat, Wild (buckwheat, wild; 62 g ai/ha): 100 | Plant response rating, Buckwheat, Wild (buckwheat, wild; 125 g ai/ha): 100 | Plant response rating, Buckwheat, Wild (buckwheat, wild; 250 g ai/ha): 100
